The values that follow come from patent US10959979B2, “Small molecules against cancer” (Biokine Therapeutics Ltd., priority 2015, dated 2021).

Each structure is given as a SMILES string. Values after ≈ are worked out from the molar mass of the structure shown.

As usually defined, the % Inhibition is the share of the control response that was lost under treatment. Lower therefore signals a weak effect. In general, IC50 refers to the concentration at which inhibition is half-maximal.

One assay deals with T1, MLCK (MLCK2) (Homo sapiens, UniProt Q32MK0).
T1 sequence (Q32MK0 1-819): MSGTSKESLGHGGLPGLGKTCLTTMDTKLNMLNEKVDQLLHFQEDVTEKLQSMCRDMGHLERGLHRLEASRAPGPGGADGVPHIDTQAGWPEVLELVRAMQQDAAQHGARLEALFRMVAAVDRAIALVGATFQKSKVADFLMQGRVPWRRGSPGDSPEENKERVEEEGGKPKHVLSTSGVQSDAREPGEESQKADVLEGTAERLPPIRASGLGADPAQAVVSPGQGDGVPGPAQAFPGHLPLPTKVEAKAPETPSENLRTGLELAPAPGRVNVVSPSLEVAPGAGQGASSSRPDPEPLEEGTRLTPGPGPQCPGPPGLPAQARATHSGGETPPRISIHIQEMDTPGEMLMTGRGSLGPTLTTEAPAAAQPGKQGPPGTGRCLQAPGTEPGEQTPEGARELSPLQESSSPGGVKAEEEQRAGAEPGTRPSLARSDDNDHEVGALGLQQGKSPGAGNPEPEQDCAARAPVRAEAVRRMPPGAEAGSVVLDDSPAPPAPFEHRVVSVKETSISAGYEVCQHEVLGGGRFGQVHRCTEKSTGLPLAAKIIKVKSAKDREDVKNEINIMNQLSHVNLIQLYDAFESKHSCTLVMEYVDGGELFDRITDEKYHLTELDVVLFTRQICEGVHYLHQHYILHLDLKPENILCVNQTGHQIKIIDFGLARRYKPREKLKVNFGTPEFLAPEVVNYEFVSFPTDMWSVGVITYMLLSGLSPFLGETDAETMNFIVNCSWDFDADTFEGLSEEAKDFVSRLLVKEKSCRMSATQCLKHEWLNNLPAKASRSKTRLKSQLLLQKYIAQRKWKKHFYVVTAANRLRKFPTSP
In words: LanthaScreen europium kinase binding assay. Conditions: BKT300 at 78% purity. As to the method:
(§1) In order to further characterize the effect of BKT300 on cell signaling, kinase profiling of BKT300 (at 78% purity) was performed (by the Life Technologies SelectScreen® Biochemical Profiling Lab) using a LanthaScreen® europium kinase binding assay to screen 440 kinases.
(§2) The principle of the LanthaScreen® assay is depicted in FIG. 48. Binding of an Alexa Fluor® conjugate or “tracer” to a kinase is detected by addition of a europium (Eu)-labeled anti-tag antibody. Binding of the tracer and antibody to a kinase results in a high degree of FRET, whereas displacement of the tracer with a kinase inhibitor results in a loss of FRET. The kinase tracers are based on ATP-competitive kinase inhibitors, making them suitable for detection of any compounds that bind to the ATP site. Inhibitors that bind the ATP site include both Type I kinase inhibitors, which bind solely to the ATP site, and Type II inhibitors (e.g., imatinib, sorafenib, BIRB-796), which bind to both the ATP site and a second site often referred to as the allosteric site.
For orientation: Time-resolved FRET reads energy transfer from a long-lived donor to a nearby acceptor.

Another assay has as its target MIP3a (Homo sapiens, UniProt P78556). As to the kind of experiment: Migration of CD4+ T-cells toward MIP3a (Transwell migration assay). It is filed as cell-based. Particulars: 50 μg/ml; BKT300 at 78% purity. As to the method: (§3) 600 μl of RPMI medium was added to the lower chambers of Transwell® transmigration plates, supplemented with 2 μg/ml of MIP3a, 100 ng/ml of SDF-1 or 10 ng/ml of MCP-1. The tested small molecule was added to the lower chambers at the indicated concentration, except in control samples. The MIP3a, SDF-1 or MCP-1 was incubated with the small molecule for 30 minutes at room temperature before the initiation of the migration assay. Following 30 minutes of incubation 2×10^5 immune cells were added to the upper chambers of the transmigration plates in a total volume of 100 μl. Cells which migrated within 3 hours to the bottom chamber of the Transwell® plates were counted using a FACScalibur™ flow cytometer.
To evaluate migration toward MIP3a, peripheral blood mononuclear cells (PBMCs) were isolated from heparinized venous blood by centrifugation over Ficoll Histopaque® 1077. CD4+ T cells were further isolated with RosetteSep™ human CD4+ T-cell Enrichment cocktail (StemCell Technologies Inc.), according to the manufacturer's instructions. CD4+ T cells were re-suspended in RPMI medium containing 1% fetal calf serum (FCS).

Assay [1] has as its system MV4-11 human acute myeloid leukemia cells. In words: Cancer cell viability, FACS with propidium iodide staining. It is filed as cell-based. How it is done:
(§4) In order to assess the effect of compounds of Table 2 on cancer cell viability, the in vitro effect of the compounds on MV4-11 human acute myeloid leukemia cells was evaluated. The cancer cells were incubated in RPMI cell medium with 1% fetal calf serum (FCS) at a concentration of 2×10^5 cells/well at a final volume of 250 μl in 96-well plate. The compounds were added to the cells at the indicated concentrations. The cells were incubated for 24 hours and the number of dead and viable cells was then evaluated by fluorescence-activated cell sorting (FACS), using propidium iodide (PI) staining.

Assay [2] deals with Jurkat human acute lymphoblastic leukemia cells. The assay is described as above. It is filed as cell-based. Particulars: BKT300 at 78% purity. How it is done: as §4
(§5) The in vitro effect of BKT300 (at 78% purity) on cancer cell viability was further evaluated using a variety of additional cancer cell lines, using procedures as described hereinabove with respect to MV4-11 cells.

Assay [3] concerns Bjab human lymphoma cells. Described as above. It is filed as cell-based. Particulars: 8.5 μg/ml; BKT300 at 78% purity. As to the method:
as §4, §5

Assay [4] deals with Raji human lymphoma cells. The assay is described as above. Conditions: BKT300 at 78% purity. It is filed as cell-based. How it is done: as §4, §5
The test system of assay [5] is RPMI human multiple myeloma cells. Described as above. It is filed as cell-based. Conditions: BKT300 at 78% purity; concentrations as low as 2 μg/ml (the lowest tested concentration). How it is done: as §4, §5
Assay [6] concerns H460 human large cell lung cancer cells. Described as above. It is filed as cell-based. Particulars: 10 μg/ml; BKT300 at 78% purity. How it is done:
as §4, §5

The subject of assay [7] is H345 human small cell lung cancer cells. Described as above. It is filed as cell-based. Conditions: 8.5 μg/ml; BKT300 at 78% purity. As to the method: as §4, §5
Another assay deals with SDF-1 (Homo sapiens, UniProt P48061). In words: Migration of Jurkat cells towards SDF-1 (Transwell migration assay). It is filed as cell-based. Particulars: for Inhibition of migration of lymphocytic Jurkat cells towards SDF-1: 10 μg/ml. How it is done:
as §3
To evaluate migration towards SDF-1, Jurkat cells were re-suspended in RPMI medium containing 1% fetal calf serum (FCS).

The target of a further assay is MCP-1 (Homo sapiens, UniProt P13500). In words: Migration of THP-1 cells towards MCP-1 (Transwell migration assay). It is filed as cell-based. Conditions: BKT300 at 78% purity. As to the method: as §3
To evaluate migration towards MCP-1, THP-1 cells were re-suspended in RPMI medium containing 1% fetal calf serum (FCS).

The subject of a further assay is 440 kinases. In words: LanthaScreen europium kinase binding assay, screen of 440 kinases. Also on record: species or system human. As to the method:
as §1, §2

Another assay deals with MV4-11 (FLT3-ITD) cells. In words: AML cells in vivo: NSG mice transplanted with MV4-11 cells. Also on record: species or system NOD scid gamma (NSG) mice. Particulars: BKT300 at 98% purity; 1 mg/Kg intraperitoneally for three consecutive days from day 21; day 25; anti human CD45. As to the method:
The effect of BKT300 (at 98% purity) on the proliferation of AML cells in vivo was examined by treatment of NOD scid gamma (NSG) mice transplanted with MV4-11 (FLT3-ITD) cells.
The mice were subjected to irradiation with 300 rad and on the following day were transplanted by IV injection with MV4-11 (FLT3-ITD) cells, 10×10^6 cells/mouse. 21 days following transplantation, the treated group was injected intraperitoneally with 1 mg/Kg of BKT300 (98% purity) per injection for three consecutive days. On day 25 following transplantation, mice were sacrificed and the survival of the human AML blasts in the blood, spleen and the bone marrow was evaluated using anti human CD45.

SDF-1, sequence (P48061 22-93): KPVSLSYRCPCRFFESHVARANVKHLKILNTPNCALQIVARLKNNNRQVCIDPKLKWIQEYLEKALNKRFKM
MCP-1, sequence (P13500 24-99): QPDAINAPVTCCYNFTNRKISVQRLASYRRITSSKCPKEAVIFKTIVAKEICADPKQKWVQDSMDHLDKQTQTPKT
MIP3a, sequence (P78556 27-96): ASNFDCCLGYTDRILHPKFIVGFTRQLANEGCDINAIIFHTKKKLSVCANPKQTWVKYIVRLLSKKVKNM

For the compound `CCCCCc1cc2cc(O)cc(Oc3c(O)cc(O)cc3CCCCC)c2c(=O)o1` [BKT300], the “% Inhibition” value on MLCK (MLCK2) is 58%. The “Inhibition of CD4+ T-cell migration towards MIP3a” value at MIP3a was “completely inhibited”. Also, the “Degree of cell death of MV4-11 cells, 98% purity compared with 78% purity” value in assay [1] (4.25 μg/ml, BKT300 at 98% purity vs 78% purity) is reported as “considerably greater degree of cell death”. Besides, in assay [1] (BKT300 at 78% purity, concentrations as low as 2 μg/ml (the lowest tested concentration), 24 hours), the “Cell death of MV4-11 cells” value is recorded as “induced cell death”. Moreover, the “Induction of cell death of MV4-11 cells, 98% purity compared with 78% purity” value in assay [1] (BKT300 at 98% purity vs BKT300 at 78% purity) was “significantly more effective”. The IC50 was 2.72 µg/mL (≈ 6.38 µM) in assay [1] (Homo sapiens, MV4-11, BKT300 at 78% purity, 24 hours, read-out: IC50 for induced death of MV4-11 cells) and 3.5 µg/mL (≈ 8.21 µM) in assay [2] (Homo sapiens, Jurkat, read-out: IC50 for BKT300-induced death of Jurkat cells). Besides, in [2] (concentrations as low as 2 μg/ml (the lowest tested concentration)), the “Cell death of Jurkat cells” value is “induced cell death”. The “Cell death of Bjab cells” value in assay [3] is reported as “about 30%”. In addition, the entries for the “Cell death of Raji cells” value in [4] (4.25 μg/ml) and in [4] (8.5 μg/ml) were “slight cell death” and “about 30%”, respectively. The “Cell death of RPMI cells” value in assay [5] is reported as “induced cell death”. In addition, the “Cell death of H460 cells” value in assay [6] was “about 80%”. In addition, the “Cell death of H345 cells” value in assay [7] is reported as “over 90%”. Also, the “Inhibition of migration of lymphocytic Jurkat cells towards SDF-1” value at SDF-1 (BKT300 at 78% purity) and on SDF-1 (BKT300 at 98% purity) was “significantly inhibited” throughout. The “Selectivity of inhibition of SDF-1 function over MCP-1 and/or MIP3a function” value on SDF-1 (at a concentration of about 10 μg/ml) was “relatively selective manner”. Further, the “Inhibition of migration of monocytic THP-1 cells towards MCP-1” value at MCP-1 (10 μg/ml) is “no apparent effect”; at MCP-1 (50 μg/ml), “strong inhibition”. Moreover, the “Inhibition of 36 of the 440 screened kinases” value with 440 kinases (BKT300 at 78% purity) is listed as “more than 40%”. Further, in the assay with 440 kinases (estimated from Table 3), the “Affinity of BKT300 to kinases, based on the kinase screening assay” value is listed as “few tens”. The “Number and percentage of AML cells in the bone marrow of mice” value in the assay with MV4-11 (FLT3-ITD) cells is “dramatically reduced”.
